Patent US8309578B2, “Bicyclic pyrazole and isoxazole derivatives as antitumor and antineurodegenerative agents” (Nerviano Medical Sciences S.r.l., priority 2008, dated 2012)

These compounds were tested on Her2 protein levels in BT474 breast cancer cells (assay: Her2 degradation in BT474 breast cancer cells (immunocytochemistry, ArrayScan vTi), marker for Hsp90 inhibition). Details: Homo sapiens, BT-474, 8 h treatment, concentration at which cellular Her2 signal is diminished by 50% vs untreated controls.
Format: cell-based
Experimental: The potency of the compounds of formula (I) were evaluated by measuring the Her2 degradation as a marker for Hsp90 inhibition.
Hsp90 is a key component of a chaperone machinery that catalyzes the folding and quality control of several proteins. Its inhibition impairs the capacity to fold or stabilize its client proteins, leading to the proteosomal dependent degradation of these unfolded proteins. At the moment there is an increasing number (>100) of reported Hsp90 clients, but one of the most frequently way to detect Hsp90 chaperone inhibition is the detection of Her2 protein levels after short time treatment (usually 8-24 h), in order to be sure about the specificity of this effect.
Cellular activity of Hsp90 inhibitors was assessed by measuring the induced loss of Her2 protein levels in BT474 breast cancer cells (ATCC #HTB-20). Cellular Her2 levels were measured by immunocytochemistry, and quantified using an ArrayScan vTi instrument (Cellomics Thermo Scientific).
Studies were performed as follows: 5000 cells/well are seeded in 96 well plates (Perkin Elmer) in DMEM/5% FCS and incubated for 48 h at 37° C., under 5% CO2.
Medium is then replaced with fresh medium containing test compounds at the required concentration. Concentration curves are prepared in DMEM/10% FCS from compound stocks in DMSO, and final DMSO concentration is 0.1% (v/v). Duplicate wells for each concentration point are prepared, with a typical highest compound concentration of 30 μM. After addition of compound, plates are returned to the incubator for 8 h, then fixed by replacing medium with PBS containing 3.7% paraformaldehyde solution. Plates are incubated for 20 minutes at room temperature, then wells are washed in PBS and cells permiabilised by incubating with PBS containing 0, 3% Triton X-100 for 15 minutes at room temperature. Non-specific binding sites are blocked by incubating wells for 1 h in PBS containing 3% (w/v) BSA. Wells are then incubated for 1 h at room temperature in PBS containing anti Her2 mouse monoclonal (Anti-c-ErbB2/c-Neu, Mouse mAb 3B5, Calbiochem Cat No OP15) diluted 1:100 in 1% (w/v) BSA. After 3 washes in PBS, wells are incubated in PBS (w/v) 1% BSA containing a 2 μg/ml of Cy2-conjugated Goat anti mouse secondary antibody (Amersham Pharmacia Biothech cat. No PA 42002) (Absorption maximum 489 nm fluorescence maximum 506 nm) and 1 μg/ml of DAPI (Absorption maximum 359 nm fluorescence maximum 461 nm) (4′,6-Diamidino-2-phenylindole, dilactate) (Sigma cat. No D 9564) a high sensitivity dye to detect nucleid acid for nuclear staining. After washing a further 3 times in PBS, cellular Her2 immunoreactivity is assessed using the ArrayScan vTi instrument, with a Zeiss 10×0.5 N.A. objective, and applying the Cytotoxity.V3 algorithm (Cellomics/Thermo Fisher) with a XF100 filter. At least 10 fields, corresponding to at least 900 cells, are read for each well. IC50 values represent the compound concentration at which cellular Her2 signal is diminished by 50% compared with untreated controls.
The following formula is used: IC50=Bottom+(Top−Bottom)/(1+10^((Log EC50−X)));
X is the logarithm of concentration. IC50 is the response; IC50 starts at Bottom and goes to Top with a sigmoid shape. The compounds of formula (I) tested as described above, result to induce the degradation of Her2 protein.

| SMILES | IC50 [µM] |
| --- | --- |
| O=C(C1CCC2(CC1)OCCO2)N1CCc2n[nH]c(-c3cc(Cl)c(O)cc3O)c2C1 [compound 14, [3-(5-chloro-2,4-dihydroxyphenyl)-1,4,6,7-tetrahydro-5H-pyrazolo[4,3-c]pyridin-5-yl](1,4-dioxaspiro[4.5]dec-8-yl)methanone] | 1.1 |
| O=C(c1ccc(-n2ccnc2)cc1)N1CCc2[nH]nc(-c3cc(Cl)c(O)cc3O)c2C1 [compound 16, [3-(5-chloro-2,4-dihydroxyphenyl)-1,4,6,7-tetrahydro-5H-pyrazolo[4,3-c]pyridin-5-yl][4-(1H-imidazol-1-yl)phenyl]methanone] | 8.3 |
| CO[C@H]1CC[C@H](C(=O)N2CCc3[nH]nc(-c4cc(Cl)c(O)cc4O)c3C2)CC1 [compound 17, [3-(5-chloro-2,4-dihydroxyphenyl)-1,4,6,7-tetrahydro-5H-pyrazolo[4,3-c]pyridin-5-yl](trans-4-methoxycyclohexyl)methanone] | 3 |
| COc1ccc(CN2CCc3[nH]nc(-c4cc(Cl)c(O)cc4O)c3C2)cc1OC [compound 40, 4-chloro-6-[5-(3,4-dimethoxybenzyl)-4,5,6,7-tetrahydro-1H-pyrazolo[4,3-c]pyridin-3-yl]benzene-1,3-diol] | 4 |
| Oc1cc(O)c(-c2n[nH]c3c2CN(Cc2ccc(-n4ccnn4)cc2)CC3)cc1Cl [compound 49, 4-chloro-6-{5-[4-(1H-1,2,3-triazol-1-yl)benzyl]-4,5,6,7-tetrahydro-1H-pyrazolo[4,3-c]pyridin-3-yl}benzene-1,3-diol] | 3.4 |
| Oc1cc(O)c(-c2onc3c2CN(Cc2ccc(-n4ccnc4)cc2)CC3)cc1Cl [compound 67, 4-chloro-6-{5-[4-(1H-imidazol-1-yl)benzyl]-4,5,6,7-tetrahydroisoxazolo[4,3-c]pyridin-3-yl}benzene-1,3-diol] | 8.7 |
